According to patent publication US11872291B2, “Fibroblast activation protein (FAP)-targeted imaging and therapy” (priority 2016, dated 2024):

Experiments:
[1] = tested on: MDA-MB-231 subcutaneous tumor; assay: In vivo FAP targeted CAR T-cell therapy; design: species or system mice
Protocol: In vivo FAP targeted CAR T-cell therapy: MDA-MB-231 subcutaneous tumor was developed in female NSG mice by injecting 5 million cancer cells. Once the tumor volume reached ˜100 mms the mice were randomized into three different groups and treatment was initiated. Mice in all the groups were administered with 15 million CAR T-cells which has an scFv domain that binds specifically and tightly with fluorescein. 2 h after administration of the CAR T-cells mice in all the groups were given the first dose of the respective test agents. […] During therapy, mice in different groups were administered with the respective test agents intravenously on every other day. As a measure of gross toxicity mice were also weighed at every dosing.

[2] = tested on: FaDu, HT29, MDA-MB231 and KB cancer cells; assay: Confocal microscopy, uptake of JFL-L1-FM by cancer cells; format: cell-based; conditions: 100 nM, 1 h incubation at 37° C.
Protocol: Confocal Microscopy. FaDu, HT29, MDA-MB231 and KB cancer cells (30,000) were plated on 4 well confocal plate. The cells were incubated with […] JFL-L1-FM and incubated for 1 h. The unbound fluorescence was removed by washing the cells three times with the medium. The cell bound fluorescence was observed by using Olympus confocal microscopy.
In Vitro Binding Affinity and Confocal Imaging. The cancer cells FaDU, HT29, MDA-MB231 and KB were investigated for the expression of FAP. For this purpose, the cancer cells were seeded on a confocal well plate and incubated with 100 nM of the FAP targeted FM conjugate (JFL-L1-FM) After 1 h incubation at 37° C. the cells were washed to remove any excess of the […] under confocal microscopy to investigate any uptake of the dye, as shown in FIG. 11. […] This implied absence of FAP on these cancer cells.

[3] = tested on: FaDu, HT29, MDA-MB231 or KB tumor bearing mice; assay: In vivo fluorescence imaging and biodistribution in tumor xenografts; conditions: i.v., 2 h post injection; harvested organs
Protocol: In Vivo Fluorescence Imaging and Biodistribution. For the development of subcutaneous tumor xenografts, MDA-MB231, OVCAR-3 and HEC-1B 5×10^6 cells in 0.2 ml sterile PBS were injected subcutaneously in the right hind flank of the female nu/nu mice. Tumor imaging was initiated once the tumor volume reached between 200 mm^3 and 300 mm^3. Each tumor-bearing mouse was intravenously injected (via tail vein) with 10 nanomoles of fluorescence dye conjugate either in the presence or absence of a 100-fold excess of the unlabeled conjugate. Animals were euthanized two hours post injection using CO2 and the images were acquired using Caliper IVIS Luminal II. After performing the whole body image, the organs of interest were harvested and imaged to inspect the accumulation of the fluorescence in these organs. The image acquisition parameters were as follows: i) lamp level-high, ii) excitation-745 nm, iii) emission-ICG, iv) binning (M) 4M, (v) f-stop-4, (vi) FOV-12.5, (vii) acquisition time, 5 s.
In Vivo Fluorescence Imaging. To investigate the ability of JFL-L1-S0456 to accumulate in vivo mice were implanted with FaDu (n=5), HT29 (n=5), MDA-MB231(n=5) or KB (n=5) cells. These tumor bearing mice were intravenously injected with the NIR dye conjugate alone or co-injected with excess of the FAP targeting ligand JFL. […]

[4] = 10 nmoles i.v. every other day with 15 million anti-fluorescein CAR T-cells

Structure (SMILES) | tumor growth rate after 1 week of treatment [1, 4] | tumor volume at the beginning of the study [1, 4] | tumor growth rate, competition group ([1]; 10 nmoles plus 100-fold excess of JFL, with CAR T-cells) | weight loss (gross toxicity) ([1]; all arms of the study) | uptake of dye conjugate observed under confocal microscopy [2] | uptake of the dye conjugate in the liver and kidney [3]
C[C@@H](NC(=O)c1ccnc(CNC(=O)CCC(=O)NC(CSC2CC(=O)N(c3ccc(-c4c5ccc(=O)cc-5oc5cc(O)ccc45)c(C(=O)O)c3)C2=O)C(=O)O)c1)C(=O)N1CC(F)(F)C[C@H]1C#N (stereo partly drawn) [JFL-L1-FM] | slight separation in the tumor growth rate was observed | did not display any reduction in tumor volume | did not show any difference in the tumor growth rate | No weight loss was observed | no uptake of dye conjugate was observed | –
C[C@@H](NC(=O)c1ccnc(CNC(=O)CCC(=O)N[C@@H](CSC2CC(=O)N(CCNC(=O)CCc3ccc(OC4=C(/C=C/C5=[N+](CCCCS(=O)(=O)O)c6ccc(S(=O)(=O)[O-])cc6C5(C)C)CCC/C4=C\C=C4\N(CCCCS(=O)(=O)O)c5ccc(S(=O)(=O)O)cc5C4(C)C)cc3)C2=O)C(=O)O)c1)C(=O)N1CC(F)(F)C[C@H]1C#N (stereo partly drawn) [JFL-L1-S0456] | – | – | – | – | – | minimal or no uptake
